Measured values taken from ChEMBL document CHEMBL4359927, “Structural optimization and neurotrophic activity evaluation of neurotrophic gentiside derivatives” (Bioorg Med Chem Lett, 2019).
The source made the active and inactive calls. No cut-off for these calls is given here.

Columns and labels:
PC-12 [1] = test: Induction of neurite outgrowth in rat PC12 cells assessed as increase in neurite length at 1 uM incubated for 48 hrs by phase contrast microscopy; type: functional, cell-based
PC-12 [2] = test: Induction of neurite outgrowth in rat PC12 cells assessed as increase in neurite length incubated for 48 hrs by phase contrast microscopy; type: functional, cell-based
PC-12 [3] = test: Cytotoxicity against rat PC12 cells assessed as reduction in cell viability at 10 uM incubated for 48 hrs; type: cell-based; details: pc-12, 48 h
PC-12 [4] = test: Cytotoxicity against rat PC12 cells assessed as reduction in cell viability at >5 uM incubated for 48 hrs; type: cell-based; details: pc-12, 48 h
PC-12 [5] = test: Induction of neurite outgrowth in rat PC12 cells assessed as increase in neurite length at 10 uM incubated for 48 hrs by phase contrast microscopy; type: functional, cell-based
PC-12 [6] = test: Induction of neurite outgrowth in rat PC12 cells assessed as increase in neurite length at 30 uM incubated for 48 hrs by phase contrast microscopy; type: functional, cell-based

SMILES: CCCCCCCC/C=C/c1ccc(COC(=O)c2cccc(O)c2O)cc1
- Activity (PC-12 [1]): Active

SMILES: CCCCCCCCCCCCCCOC(=O)c1cccc2nc[nH]c12
- Activity (PC-12 [1]): inactive

SMILES: CCCCCCCCCc1ccc(COC(=O)c2cccc(O)c2O)cc1
- Activity (PC-12 [1]): Active
- Activity (PC-12 [2]): Dose-dependent effect
- Activity (PC-12 [3]): Toxic
- Activity (PC-12 [4]): Toxic

SMILES: O=C(Oc1ccc(-c2ccccc2)cc1)c1cccc(O)c1O
- Activity (PC-12 [5]): inactive

SMILES: CCCCCCCCCCCCCCOC(=O)c1cccc(O)c1O
- Activity (PC-12 [1]): Active
- Activity (PC-12 [3]): Toxic
- Activity (PC-12 [4]): Toxic

SMILES: O=C(OCCc1ccccc1)c1cccc(O)c1O
- Activity (PC-12 [6]): inactive

SMILES: CCCCCc1ccc(-c2ccc(COC(=O)c3cccc(O)c3O)cc2)cc1
- Activity (PC-12 [5]): inactive

SMILES: O=C(OCCCc1ccccc1)c1cccc(O)c1O
- Activity (PC-12 [6]): inactive

SMILES: O=C(OCc1ccccc1)c1cccc(O)c1O
- Activity (PC-12 [6]): Active

SMILES: CCCCCCc1ccc(-c2ccc(OC(=O)c3cccc(O)c3O)cc2)cc1
- Activity (PC-12 [5]): inactive

SMILES: CCCCCCCCCCCCCCOC(=O)c1csc(N)n1
- Activity (PC-12 [1]): inactive

SMILES: CCCCCCC/C=C/c1ccc(COC(=O)c2cccc(O)c2O)cc1
- Activity (PC-12 [1]): Active

SMILES: O=C(OCc1ccc(-c2ccccc2)cc1)c1cccc(O)c1O
- Activity (PC-12 [5]): inactive

SMILES: O=C(OCCCCc1ccccc1)c1cccc(O)c1O
- Activity (PC-12 [6]): inactive

SMILES: O=C(Oc1ccccc1)c1cccc(O)c1O
- Activity (PC-12 [6]): Active

SMILES: CCCCCCCCCCCCCCOC(=O)c1c(O)c(=O)[nH]c2ccccc12
- Activity (PC-12 [1]): Active
- Activity (PC-12 [2]): Dose-dependent effect
- Activity (PC-12 [3]): Toxic
- Activity (PC-12 [4]): Toxic

SMILES: CCCCCCCCCCc1ccc(COC(=O)c2cccc(O)c2O)cc1
- Activity (PC-12 [1]): Active

SMILES: O=C(OCCCCCCCCCCc1ccccc1)c1cccc(O)c1O
- Activity (PC-12 [6]): inactive

SMILES: CCCCCCCCCCc1ccc(OC(=O)c2cccc(O)c2O)cc1
- Activity (PC-12 [1]): Active
- Activity (PC-12 [2]): Dose-dependent effect
- Activity (PC-12 [3]): Toxic
- Activity (PC-12 [4]): Toxic

SMILES: CCCCCCCCCCCCCCOC(=O)c1ccn[nH]1
- Activity (PC-12 [1]): inactive
